Results: US20230114728A1 (Venatorx Pharmaceuticals, Inc., priority 2019, published 2023)
Values after ≈ are worked out from the molar mass of the structure shown.

Key:
P. aeruginosa PBP3 = molecular target: T1, P. aeruginosa PBP3 (Pseudomonas aeruginosa, UniProt G3XD46); test: Bocillin-FL fluorescence polarization competition binding assay, P. aeruginosa PBP3; details: fluorescence polarization competition binding assay using Bocillin-FL
T1 construct: made in house
Procedure, shortened: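 Inhibitor competition with Bocillin-FL for P. aeruginosa PBP3 was followed by fluorescence polarization on a Cytation3 (BioTek) reader, using g-factor 0.96, 490 nm excitation and 520 nm emission. The enzyme was at 0.75 μM and the probe at 0.1 μM in Hepes/NaCl/glycerol buffer, 80 μl per well. FP was recorded immediately after probe addition for up to 60 minutes. Potency was expressed as EC50, the concentration that reduces bound probe by 50%.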

E. coli K12 PBP3 = molecular target: T2, E. coli K12 PBP3 (Escherichia coli, UniProt P0AD68); test: biochemical; assay type: binding
T2 construct: made in house
Procedure, shortened: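 A. baumannii PBP2 (2.5 μM) and PBP3 (0.2 μM) were run in 25 mM Tris pH 8.0 buffer with Tween 20; E. coli PBP3 (1.5 μM) and N. gonorrhoeae PBP2 ([…]) in 50 mM Hepes pH 8.0 buffer.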

N. gonorrhoeae FA1090 = test: Liquid broth MIC in Fastidious broth; assay type: cell-based; details: Neisseria gonorrhoeae; N. gonorrhoeae strain FA1090; Fastidious broth; read-out: Minimum Inhibitory Concentration, N. gonorrhoeae FA1090
Procedure, shortened: (§1)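 Colonies were swabbed from chocolate agar after 24 h growth and standardised by optical density at 600 nm. Compounds were serially diluted twofold in Fastidious broth, and bacteria added to give 5×10^5 CFU/mL. After about 24 h at 36 °C in 5% CO2, the lowest concentration allowing under 10% growth was taken as MIC.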

N. gonorrhoeae WHO Z = test: Liquid broth MIC in Fastidious broth; assay type: cell-based; details: Neisseria gonorrhoeae, read-out: Minimum Inhibitory Concentration, N. gonorrhoeae WHO Z
Procedure, shortened: (§2)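 Strains bearing mosaic PBP2 grown 24 h on chocolate agar (36° C, 5% CO2), suspended in saline and added to 2-fold compound dilutions in Fastidious broth at 5×10^5 CFU/mL. After ~24 hours at 36° C with 5% CO2, MIC taken visually as lowest well with <10% growth relative to full growth.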

N. gonorrhoeae WHO Q = test: Liquid broth MIC in Fastidious broth; assay type: cell-based; details: Neisseria gonorrhoeae, read-out: Minimum Inhibitory Concentration, N. gonorrhoeae WHO Q
Procedure, shortened: as §2

N. gonorrhoeae WHO L = test: Liquid broth MIC in Fastidious broth; assay type: cell-based; details: Neisseria gonorrhoeae; N. gonorrhoeae strain WHO L; Fastidious broth; read-out: Minimum Inhibitory Concentration, N. gonorrhoeae WHO L
Procedure, shortened: as §1

[1] = system: N. gonorrhoeae ATCC 49226; test: Liquid broth MIC in Fastidious broth; assay type: cell-based; details: Neisseria gonorrhoeae, ATCC49226; N. gonorrhoeae strain ATCC 49226; Fastidious broth; read-out: Minimum Inhibitory Concentration, N. gonorrhoeae ATCC 49226
Procedure, shortened: as §1

N. gonorrhoeae WHO K = test: Liquid broth MIC in Fastidious broth; assay type: cell-based; details: Neisseria gonorrhoeae, read-out: Minimum Inhibitory Concentration, N. gonorrhoeae WHO K
Procedure, shortened: as §2

N. gonorrhoeae H041 = test: Liquid broth MIC in Fastidious broth; assay type: cell-based; details: Neisseria gonorrhoeae, H041, read-out: Minimum Inhibitory Concentration, N. gonorrhoeae H041
Procedure, shortened: as §2

N. gonorrhoeae WHO G = test: Liquid broth MIC in Fastidious broth; assay type: cell-based; details: Neisseria gonorrhoeae; N. gonorrhoeae strain WHO G; Fastidious broth; read-out: Minimum Inhibitory Concentration, N. gonorrhoeae WHO G
Procedure, shortened: as §1

T2 sequence (P0AD68 1-577): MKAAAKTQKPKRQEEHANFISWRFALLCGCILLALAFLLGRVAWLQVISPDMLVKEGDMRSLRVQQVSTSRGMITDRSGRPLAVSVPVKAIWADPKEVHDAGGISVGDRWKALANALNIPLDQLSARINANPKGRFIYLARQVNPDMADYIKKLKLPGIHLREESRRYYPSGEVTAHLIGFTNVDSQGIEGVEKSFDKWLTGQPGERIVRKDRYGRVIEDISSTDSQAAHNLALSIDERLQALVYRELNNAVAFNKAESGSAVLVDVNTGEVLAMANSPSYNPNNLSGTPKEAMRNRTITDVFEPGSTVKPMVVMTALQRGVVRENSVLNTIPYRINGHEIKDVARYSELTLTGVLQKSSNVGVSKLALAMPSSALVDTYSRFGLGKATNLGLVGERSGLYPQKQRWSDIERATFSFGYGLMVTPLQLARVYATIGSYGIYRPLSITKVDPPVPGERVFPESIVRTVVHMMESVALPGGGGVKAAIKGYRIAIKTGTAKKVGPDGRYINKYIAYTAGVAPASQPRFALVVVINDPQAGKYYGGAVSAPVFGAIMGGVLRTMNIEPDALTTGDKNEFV
T1 sequence (G3XD46 whole entry): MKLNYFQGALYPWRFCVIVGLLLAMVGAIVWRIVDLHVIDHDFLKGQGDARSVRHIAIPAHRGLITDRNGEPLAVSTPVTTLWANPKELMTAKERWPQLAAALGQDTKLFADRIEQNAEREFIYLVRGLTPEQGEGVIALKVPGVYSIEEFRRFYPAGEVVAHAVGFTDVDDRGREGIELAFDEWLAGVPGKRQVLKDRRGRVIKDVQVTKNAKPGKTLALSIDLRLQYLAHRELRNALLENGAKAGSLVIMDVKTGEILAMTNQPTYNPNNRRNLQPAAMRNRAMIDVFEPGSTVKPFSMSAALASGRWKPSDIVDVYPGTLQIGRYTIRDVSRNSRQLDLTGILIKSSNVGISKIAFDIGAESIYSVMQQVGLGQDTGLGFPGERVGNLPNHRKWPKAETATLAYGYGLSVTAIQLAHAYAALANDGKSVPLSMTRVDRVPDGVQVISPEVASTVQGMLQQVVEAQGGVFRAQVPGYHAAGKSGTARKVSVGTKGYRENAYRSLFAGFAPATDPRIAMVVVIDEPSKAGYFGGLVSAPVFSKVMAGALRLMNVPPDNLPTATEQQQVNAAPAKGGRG

Row | Structure (SMILES) | P. aeruginosa PBP3 Potency (P. aeruginosa PBP3) | EC50 (E. coli K12 PBP3) [µM] | MIC (N. gonorrhoeae FA1090) [µg/mL] | MIC (N. gonorrhoeae WHO Z) [µg/mL] | MIC (N. gonorrhoeae WHO Q) [µg/mL] | MIC (N. gonorrhoeae WHO L) [µg/mL] | MIC [1] [µg/mL] | MIC (N. gonorrhoeae WHO K) [µg/mL] | MIC (N. gonorrhoeae H041) [µg/mL] | MIC (N. gonorrhoeae WHO G) [µg/mL]
1 | NC1(CN2CCN(C(=O)N[C@@H](C(=O)N[C@H]3Cc4ccc(F)c(C(=O)O)c4OB3O)c3cc(F)c(O)c(O)c3Cl)C(=O)C2=O)CC1 (single isomer, unassigned) [Example 133] | D (D represents a potency <10 μM) | 30 to 500 | 16 to 32 (≈ 24.5 to 49.1 µM) | > 64 | > 64 | > 64 | > 64 | > 64 | > 64 | 16 to 32 (≈ 24.5 to 49.1 µM)
2 | NC1(CN2CCN(C(=O)N[C@@H](C(=O)N[C@H]3Cc4ccc(F)c(C(=O)O)c4OB3O)c3c(F)cc(O)c(O)c3Cl)C(=O)C2=O)CC1 (single isomer, unassigned) [Example 134] | D (D represents a potency <10 μM) | 30 to 500 | 16 to 32 (≈ 24.5 to 49.1 µM) | > 64 | > 64 | > 64 | > 64 | > 64 | > 64 | > 64
3 | CS(=O)(=O)N1CCN(C(=O)N[C@@H](C(=O)N[C@H]2Cc3cccc(C(=O)O)c3OB2O)c2c(F)cc(O)cc2F)C1=O (single isomer, unassigned) [Example 135] | D (D represents a potency <10 μM) | < 30 | < 0.125 | 16 to 32 (≈ 27.5 to 55 µM) | 16 to 32 (≈ 27.5 to 55 µM) | 16 to 32 (≈ 27.5 to 55 µM) | 4 to 8 (≈ 6.87 to 13.7 µM) | > 64 | > 64 | 1 to 2 (≈ 1.72 to 3.43 µM)
4 | CS(=O)(=O)N1CCN(C(=O)N[C@H](C(=O)N[C@H]2Cc3cccc(C(=O)O)c3OB2O)c2c(F)cc(O)cc2F)C1=O (single isomer, unassigned) [Example 136] | B (B represents a potency between 30 μM and 500 μM inclusive) | 30 to 500 | 1 to 2 (≈ 1.72 to 3.43 µM) | > 64 | > 64 | > 64 | > 64 | > 64 | > 64 | 16 to 32 (≈ 27.5 to 55 µM)
5 | CCN1CCN(C(=O)N[C@H](C(=O)N[C@H]2Cc3cccc(C(=O)O)c3OB2O)c2ccc(C(=O)O)c(F)c2F)C(=O)C1=O (single isomer, unassigned) [Example 139] | D (D represents a potency <10 μM) | < 30 | < 0.125 | 1 to 2 (≈ 1.7 to 3.4 µM) | 4 to 8 (≈ 6.8 to 13.6 µM) | 4 to 8 (≈ 6.8 to 13.6 µM) | 1 to 2 (≈ 1.7 to 3.4 µM) | 4 to 8 (≈ 6.8 to 13.6 µM) | 4 to 8 (≈ 6.8 to 13.6 µM) | 1 to 2 (≈ 1.7 to 3.4 µM)
6 | CCN1CCN(C(=O)N[C@@H](C(=O)N[C@H]2Cc3cccc(C(=O)O)c3OB2O)c2ccc(C(=O)O)c(F)c2F)C(=O)C1=O (single isomer, unassigned) [Example 140] | D (D represents a potency <10 μM) | < 30 | < 0.125 | 0.25 to 0.5 (≈ 0.425 to 0.85 µM) | 1 to 2 (≈ 1.7 to 3.4 µM) | 1 to 2 (≈ 1.7 to 3.4 µM) | 0.25 to 0.5 (≈ 0.425 to 0.85 µM) | 1 to 2 (≈ 1.7 to 3.4 µM) | 1 to 2 (≈ 1.7 to 3.4 µM) | 0.25 to 0.5 (≈ 0.425 to 0.85 µM)
7 | CCN1CCN(C(=O)N[C@H](C(=O)N[C@H]2Cc3cccc(C(=O)O)c3OB2O)c2ccc(C(=O)O)cc2O)C(=O)C1=O (single isomer, unassigned) [Example 143] | B (B represents a potency between 30 μM and 500 μM inclusive) | < 30 | 1 to 2 (≈ 1.76 to 3.52 µM) | 16 to 32 (≈ 28.2 to 56.3 µM) | > 64 | > 64 | 16 to 32 (≈ 28.2 to 56.3 µM) | > 64 | > 64 | 4 to 8 (≈ 7.04 to 14.1 µM)
8 | CCN1CCN(C(=O)N[C@@H](C(=O)N[C@H]2Cc3cccc(C(=O)O)c3OB2O)c2ccc(C(=O)O)cc2O)C(=O)C1=O (single isomer, unassigned) [Example 144] | D (D represents a potency <10 μM) | < 30 | < 0.125 | 4 to 8 (≈ 7.04 to 14.1 µM) | 4 to 8 (≈ 7.04 to 14.1 µM) | 4 to 8 (≈ 7.04 to 14.1 µM) | 1 to 2 (≈ 1.76 to 3.52 µM) | 16 to 32 (≈ 28.2 to 56.3 µM) | 16 to 32 (≈ 28.2 to 56.3 µM) | 0.25 to 0.5 (≈ 0.44 to 0.88 µM)
9 | CCN1CCN(C(=O)N[C@@H](C(=O)N[C@H]2Cc3cccc(C(=O)O)c3OB2O)c2ccc(C(=O)O)c(F)c2)C(=O)C1=O (single isomer, unassigned) [Example 146] | D (D represents a potency <10 μM) | < 30 | < 0.125 | 1 to 2 (≈ 1.75 to 3.51 µM) | 1 to 2 (≈ 1.75 to 3.51 µM) | 4 to 8 (≈ 7.01 to 14 µM) | 1 to 2 (≈ 1.75 to 3.51 µM) | 1 to 2 (≈ 1.75 to 3.51 µM) | 4 to 8 (≈ 7.01 to 14 µM) | 0.25 to 0.5 (≈ 0.438 to 0.877 µM)
10 | CCN1CCN(C(=O)N[C@H](C(=O)N[C@H]2Cc3cccc(C(=O)O)c3OB2O)c2ccc(C(=O)O)c(F)c2)C(=O)C1=O (single isomer, unassigned) [Example 147] | D (D represents a potency <10 μM) | < 30 | < 0.125 | 0.25 to 0.5 (≈ 0.438 to 0.877 µM) | 0.25 to 0.5 (≈ 0.438 to 0.877 µM) | 4 to 8 (≈ 7.01 to 14 µM) | 1 to 2 (≈ 1.75 to 3.51 µM) | 0.25 to 0.5 (≈ 0.438 to 0.877 µM) | 1 to 2 (≈ 1.75 to 3.51 µM) | 0.25 to 0.5 (≈ 0.438 to 0.877 µM)
11 | CCN1CCN(C(=O)N[C@@H](C(=O)N[C@H]2Cc3cccc(C(=O)O)c3OB2O)c2cc(F)c(C(=O)O)cc2Cl)C(=O)C1=O (single isomer, unassigned) [Example 148] | D (D represents a potency <10 μM) | < 30 | 0.25 to 0.5 (≈ 0.413 to 0.827 µM) | 4 to 8 (≈ 6.61 to 13.2 µM) | 4 to 8 (≈ 6.61 to 13.2 µM) | > 64 | 4 to 8 (≈ 6.61 to 13.2 µM) | 4 to 8 (≈ 6.61 to 13.2 µM) | 16 to 32 (≈ 26.5 to 52.9 µM) | 1 to 2 (≈ 1.65 to 3.31 µM)
12 | CCN1CCN(C(=O)N[C@H](C(=O)N[C@H]2Cc3cccc(C(=O)O)c3OB2O)c2cc(F)c(C(=O)O)cc2Cl)C(=O)C1=O (single isomer, unassigned) [Example 149] | C (C represents a potency between 10 and 30 μM) | 30 to 500 | 4 to 8 (≈ 6.61 to 13.2 µM) | 16 to 32 (≈ 26.5 to 52.9 µM) | > 64 | > 64 | > 64 | > 64 | > 64 | 16 to 32 (≈ 26.5 to 52.9 µM)
13 | CCN1CCN(C(=O)N[C@@H](C(=O)N[C@H]2Cc3cccc(C(=O)O)c3OB2O)c2ccc(C(=O)O)cc2Cl)C(=O)C1=O (single isomer, unassigned) [Example 151] | D (D represents a potency <10 μM) | < 30 | 0.25 to 0.5 (≈ 0.426 to 0.852 µM) | 1 to 2 (≈ 1.7 to 3.41 µM) | 4 to 8 (≈ 6.82 to 13.6 µM) | 16 to 32 (≈ 27.3 to 54.5 µM) | 4 to 8 (≈ 6.82 to 13.6 µM) | 4 to 8 (≈ 6.82 to 13.6 µM) | 4 to 8 (≈ 6.82 to 13.6 µM) | 1 to 2 (≈ 1.7 to 3.41 µM)
14 | CCN1CCN(C(=O)N[C@H](C(=O)N[C@H]2Cc3cccc(C(=O)O)c3OB2O)c2ccc(C(=O)O)cc2Cl)C(=O)C1=O (single isomer, unassigned) [Example 152] | D (D represents a potency <10 μM) | 30 to 500 | 1 to 2 (≈ 1.7 to 3.41 µM) | 4 to 8 (≈ 6.82 to 13.6 µM) | 16 to 32 (≈ 27.3 to 54.5 µM) | > 64 | 16 to 32 (≈ 27.3 to 54.5 µM) | 16 to 32 (≈ 27.3 to 54.5 µM) | 16 to 32 (≈ 27.3 to 54.5 µM) | 4 to 8 (≈ 6.82 to 13.6 µM)
15 | CCN1CCN(C(=O)N[C@@H](C(=O)N[C@H]2Cc3cccc(C(=O)O)c3OB2O)c2ccc(C(=O)O)c(Cl)c2)C(=O)C1=O (single isomer, unassigned) [Example 154] | D (D represents a potency <10 μM) | < 30 | < 0.125 | 0.25 to 0.5 (≈ 0.426 to 0.852 µM) | 1 to 2 (≈ 1.7 to 3.41 µM) | 4 to 8 (≈ 6.82 to 13.6 µM) | 1 to 2 (≈ 1.7 to 3.41 µM) | 1 to 2 (≈ 1.7 to 3.41 µM) | 1 to 2 (≈ 1.7 to 3.41 µM) | 0.25 to 0.5 (≈ 0.426 to 0.852 µM)
16 | CCN1CCN(C(=O)N[C@H](C(=O)N[C@H]2Cc3cccc(C(=O)O)c3OB2O)c2ccc(C(=O)O)c(Cl)c2)C(=O)C1=O (single isomer, unassigned) [Example 155] | D (D represents a potency <10 μM) | < 30 | < 0.125 | 1 to 2 (≈ 1.7 to 3.41 µM) | 1 to 2 (≈ 1.7 to 3.41 µM) | 16 to 32 (≈ 27.3 to 54.5 µM) | 1 to 2 (≈ 1.7 to 3.41 µM) | 1 to 2 (≈ 1.7 to 3.41 µM) | 4 to 8 (≈ 6.82 to 13.6 µM) | 0.25 to 0.5 (≈ 0.426 to 0.852 µM)
